Test results published in the NIST ThermoML archive (doi:10.1007/s10765-009-0581-7).

Assay: xn = mol fraction of the nth substance listed
Settings: for surface tension liquid-gas: Ring tensiometer; for mass density: 101 kPa, Liquid

CC#N [acetonitrile] + CCCO
Settings	mass density, 278.15 K [kg/m3]	mass density, 283.15 K [kg/m3]	mass density, 288.15 K [kg/m3]	mass density, 293.15 K [kg/m3]	surface tension liquid-gas, 278.15 K [mN/m]	surface tension liquid-gas, 283.15 K [mN/m]	surface tension liquid-gas, 288.15 K [mN/m]	surface tension liquid-gas, 293.15 K [mN/m]
x1 = 0.1255	813.41	809.44	805.55	799.41	25.2	24.8	24.4	24
x1 = 0.2452	810.66	806.61	802.64	796.56	25.4	25	24.7	24.3
x1 = 0.3466	808.33	804.22	800.18	794.15	25.8	25.4	25	24.6
x1 = 0.4995	804.81	800.61	796.46	790.51	26.5	26.1	25.7	25.3
x1 = 0.6449	801.47	797.18	792.93	787.05	27.4	27	26.6	26.2
x1 = 0.7492	799.07	794.72	790.39	784.57	28.1	27.7	27.3	26.9
x1 = 0.8645	796.42	792	787.59	781.82	29.1	28.7	28.3	27.9
x1 = 0.9101	795.37	790.92	786.48	780.74	29.5	29.1	28.7	28.3
x1 = 1	793.3	788.8	784.3	778.3	30.5	30.1	29.7	29.3
